According to patent US9624209B2, “Substituted phenylureas and phenylamides as vanilloid receptor ligands” (Gruenenthal GmbH, priority 2009, dated 2017):

Target: T1, vanilloid receptor 1 (VR1/TRPV1 receptor) (Homo sapiens, UniProt Q8NER1)
T1 construct: expressed in transfected cells; host or cells: CHO K1 cells (ECACC), stably transfected
Assay: VR1/TRPV1 receptor affinity, capsaicin stimulus (human)
Type: cell-based, human being
Set-up: key to (f) Ki (human being) [nM] Cap: result in words: AG=agonist; pAG=partial agonist; NE=no effect
Conditions: for (f) Ki (human being) [nM] Cap: result in words: Tables 8-12; for Ki: Tables 8-12, read-out: (f) Ki (human being) [nM] Cap

T1 sequence (Q8NER1 whole entry): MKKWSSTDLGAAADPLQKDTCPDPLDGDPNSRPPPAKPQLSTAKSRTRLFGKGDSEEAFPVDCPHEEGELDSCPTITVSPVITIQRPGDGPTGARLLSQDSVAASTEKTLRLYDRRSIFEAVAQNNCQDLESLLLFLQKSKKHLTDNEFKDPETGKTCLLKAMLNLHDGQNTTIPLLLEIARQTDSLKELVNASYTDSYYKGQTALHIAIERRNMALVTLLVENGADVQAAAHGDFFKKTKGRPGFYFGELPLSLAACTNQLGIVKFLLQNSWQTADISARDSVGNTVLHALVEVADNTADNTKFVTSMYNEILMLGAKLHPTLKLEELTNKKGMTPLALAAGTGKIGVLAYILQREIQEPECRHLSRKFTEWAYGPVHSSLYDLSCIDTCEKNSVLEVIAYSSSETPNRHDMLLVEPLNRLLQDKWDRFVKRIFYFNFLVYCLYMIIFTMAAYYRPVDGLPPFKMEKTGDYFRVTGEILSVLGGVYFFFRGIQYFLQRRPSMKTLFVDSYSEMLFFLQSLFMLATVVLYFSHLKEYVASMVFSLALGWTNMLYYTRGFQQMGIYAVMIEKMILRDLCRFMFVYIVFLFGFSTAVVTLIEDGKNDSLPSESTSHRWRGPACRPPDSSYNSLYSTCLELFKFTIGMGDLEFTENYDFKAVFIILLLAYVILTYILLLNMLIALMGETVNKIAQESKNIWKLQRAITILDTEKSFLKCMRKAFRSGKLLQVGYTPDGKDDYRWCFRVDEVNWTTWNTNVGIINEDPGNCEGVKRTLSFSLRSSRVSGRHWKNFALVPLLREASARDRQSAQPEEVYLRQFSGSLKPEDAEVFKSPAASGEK

Row | (f) Ki (human being) [nM] Cap: result in words | Ki | Structure (SMILES)
1 |  | 5 nM | CC(C(=O)NCc1cc(C(F)(F)F)nn1-c1cccc(Cl)c1)c1ccc(CNS(C)(=O)=O)c(F)c1 (stereo not drawn) [Example B1, N-[[2-(3-Chlorophenyl)-5-(trifluoromethyl)-2H-pyrazol-3-yl]-methyl]-2-[3-fluoro-4-(methanesulfonamido-methyl)-phenyl]-propionamide]
2 |  | 2.4 nM | CC(C(=O)NCc1cc(C(F)(F)F)nn1-c1ccc(F)c(Cl)c1)c1ccc(CNS(C)(=O)=O)c(F)c1 (stereo not drawn) [Example B2, N-[[2-(3-Chloro-4-fluoro-phenyl)-5-(trifluoromethyl)-2H-pyrazol-3-yl]-methyl]-2-[3-fluoro-4-(methanesulfonamido-methyl)-phenyl]-propionamide]
3 |  | 3 nM | CC(C(=O)NCc1cc(C(C)(C)C)nn1-c1ccc(F)c(Cl)c1)c1ccc(CNS(C)(=O)=O)c(F)c1 (stereo not drawn) [Example B3, N-[[5-tert-Butyl-2-(3-chloro-4-fluoro-phenyl)-2H-pyrazol-3-yl]-methyl]-2-[3-fluoro-4-(methanesulfonamido-methyl)-phenyl]-propionamide]
4 |  | 7 nM | CC(C(=O)NCc1cc(C(F)(F)F)nn1-c1cccc(F)c1)c1ccc(CNS(C)(=O)=O)c(F)c1 (stereo not drawn) [Example B7, 2-[3-Fluoro-4-(methanesulfonamido-methyl)-phenyl]-N-[[2-(3-fluorophenyl)-5-(trifluoromethyl)-2H-pyrazol-3-yl]-methyl]-propionamide]
5 |  | 1 nM | CC(C(=O)NCc1cc(C(F)(F)F)nn1-c1cccc(C(F)(F)F)c1)c1ccc(CNS(C)(=O)=O)c(F)c1 (stereo not drawn) [Example B8, 2-[3-Fluoro-4-(methanesulfonamido-methyl)-phenyl]-N-[[5-(trifluoromethyl)-2-[3-(trifluoromethyl)phenyl]-2H-pyrazol-3-yl]-methyl]-propionamide]
6 |  | 6 nM | CC(C(=O)NCc1cc(C(C)(C)C)nn1-c1cccc(F)c1)c1ccc(CNS(C)(=O)=O)c(F)c1 (stereo not drawn) [Example B9, N-[[5-tert-Butyl-2-(3-fluorophenyl)-2H-pyrazol-3-yl]-methyl]-2-[3-fluoro-4-(methanesulfonamido-methyl)-phenyl]-propionamide]
7 |  | 6 nM | CC(C(=O)NCc1cc(C(C)(C)C)nn1-c1ccc(F)c(F)c1)c1ccc(CNS(C)(=O)=O)c(F)c1 (stereo not drawn) [Example B10, N-[[5-tert-Butyl-2-(3,4-difluoro-phenyl)-2H-pyrazol-3-yl]-methyl]-2-[3-fluoro-4-(methanesulfonamido-methyl)-phenyl]-propionamide]
8 |  | 6 nM | COc1cccc(-n2nc(C(F)(F)F)cc2CNC(=O)C(C)c2ccc(CNS(C)(=O)=O)c(F)c2)c1 (stereo not drawn) [Example B15, 2-[3-Fluoro-4-(methanesulfonamido-methyl)-phenyl]-N-[[2-(3-methoxyphenyl)-5-(trifluoromethyl)-2H-pyrazol-3-yl]-methyl]-propionamide]
9 |  | 3 nM | CCS(=O)(=O)NCc1ccc(C(C)C(=O)NCc2cc(C(F)(F)F)nn2-c2cccc(Cl)c2)cc1F (stereo not drawn) [Example B17, N-[[2-(3-Chlorophenyl)-5-(trifluoromethyl)-2H-pyrazol-3-yl]-methyl]-2-[4-[[(ethylsulfonyl)amino]-methyl]-3-fluoro-phenyl]-propionamide]
10 |  | 13 nM | CC(C(=O)NCc1cc(C(F)(F)F)nn1-c1ccc(Cl)cc1)c1ccc(CNS(C)(=O)=O)c(F)c1 (stereo not drawn) [Example B18, N-[[2-(4-Chlorophenyl)-5-(trifluoromethyl)-2H-pyrazol-3-yl]-methyl]-2-[3-fluoro-4-(methanesulfonamido-methyl)-phenyl]-propionamide]
11 |  | 6 nM | CC(C(=O)NCc1cc(C(F)(F)F)nn1-c1ccc(F)c(F)c1)c1ccc(CNS(C)(=O)=O)c(F)c1 (stereo not drawn) [Example B19, N-[[2-(3,4-Difluoro-phenyl)-5-(trifluoromethyl)-2H-pyrazol-3-yl]-methyl]-2-[3-fluoro-4-(methanesulfonamido-methyl)-phenyl]-propionamide]
12 |  | 52 nM | CC(C(=O)NCc1cc(C(C)(C)C)nn1-c1ccc(Cl)cc1)c1ccc(CNS(C)(=O)=O)c(F)c1 (stereo not drawn) [Example B20, N-[[5-tert-Butyl-2-(4-chlorophenyl)-2H-pyrazol-3-yl]-methyl]-2-[3-fluoro-4-(methanesulfonamido-methyl)-phenyl]-propionamide]
13 |  | 30 nM | CC(C(=O)NCc1cc(C(C)(C)C)nn1-c1ccc(F)cc1)c1ccc(CNS(C)(=O)=O)c(F)c1 (stereo not drawn) [Example B21, N-[[5-tert-Butyl-2-(4-fluorophenyl)-2H-pyrazol-3-yl]-methyl]-2-[3-fluoro-4-(methanesulfonamido-methyl)-phenyl]-propionamide]
14 |  | 3 nM | CC(C(=O)NCc1cc(C(F)(F)F)nn1-c1cccc(Cl)c1)c1ccc(CNS(C)(=O)=O)c(Cl)c1 (stereo not drawn) [Example B22, 2-[3-Chloro-4-(methanesulfonamido-methyl)-phenyl]-N-[[2-(3-chlorophenyl)-5-(trifluoromethyl)-2H-pyrazol-3-yl]-methyl]-propionamide]

Further lines, the compound ahead of its results:

Row | Structure (SMILES) | (f) Ki (human being) [nM] Cap: result in words | Ki
15 | CC(C(=O)NCc1cc(C(C)(C)C)nn1-c1cccc(C(F)(F)F)c1)c1ccc(CO)c(F)c1 (stereo not drawn) [Example A47, N-[[5-tert-Butyl-2-[3-(trifluoromethyl)phenyl]-2H-pyrazol-3-yl]-methyl]-2-[3-fluoro-4-(hydroxymethyl)-phenyl]-propionamide] | AG | 
16 | CC(C(=O)NCc1cc(C(F)(F)F)nn1-c1cccc(C(F)(F)F)c1)c1ccc(CO)c(F)c1 (stereo not drawn) [Example A48, 2-[3-Fluoro-4-(hydroxymethyl)-phenyl]-N-[[5-(trifluoromethyl)-2-[3-(trifluoromethyl)phenyl]-2H-pyrazol-3-yl]-methyl]-propionamide] | AG | 
17 | COc1cc(C(C)C(=O)NCc2cc(C(C)(C)C)nn2-c2cccc(Cl)c2)ccc1CO (stereo not drawn) [Example A49, N-[[5-tert-Butyl-2-(3-chlorophenyl)-2H-pyrazol-3-yl]-methyl]-2-[4-(hydroxymethyl)-3-methoxy-phenyl]-propionamide] | AG | 
18 | CC(C(=O)NCc1cc(C(F)(F)F)nn1-c1cccc(Cl)c1)c1cc(F)c(CO)c(F)c1 (stereo not drawn) [Example A52, N-[[2-(3-Chlorophenyl)-5-(trifluoromethyl)-2H-pyrazol-3-yl]-methyl]-2-[3,5-difluoro-4-(hydroxymethyl)-phenyl]-propionamide] |  | 40 nM
19 | CC(O)c1ccc(C(C)C(=O)NCc2cc(C(C)(C)C)nn2-c2cccc(Cl)c2)cc1F (stereo not drawn) [Example A98, N-[[5-tert-Butyl-2-(3-chlorophenyl)-2H-pyrazol-3-yl]-methyl]-2-[3-fluoro-4-(1-hydroxy-ethyl)-phenyl]-propionamide] | AG | 
20 | CC(C(=O)NCc1cc(C(C)(C)C)nn1-c1cccc(Cl)c1)c1ccc(CCO)c(F)c1 (stereo not drawn) [Example A139, N-[[5-tert-Butyl-2-(3-chlorophenyl)-2H-pyrazol-3-yl]-methyl]-2-[3-fluoro-4-(2-hydroxy-ethyl)-phenyl]-propionamide] | AG | 
21 | CC(C)(C)c1cc(CNC(=O)Nc2ccc(CCO)c(F)c2)n(-c2cccc(Cl)c2)n1 [Example A140, 1-[[5-tert-Butyl-2-(3-chlorophenyl)-2H-pyrazol-3-yl]-methyl]-3-[3-fluoro-4-(2-hydroxy-ethyl)-phenyl]-urea] | AG | 
22 | CC(C(=O)NCc1cc(C(C)(C)C)nn1-c1cccc(Cl)c1)c1ccc(C(O)CO)c(F)c1 (stereo not drawn) [Example A145, N-[[5-tert-Butyl-2-(3-chlorophenyl)-2H-pyrazol-3-yl]-methyl]-2-[4-(1,2-dihydroxy-ethyl)-3-fluoro-phenyl]-propionamide] | AG | 
23 | CC(C(=O)NCc1cc(C(C)(C)C)nn1-c1cccc(Cl)c1)c1ccc(C(O)CO)cc1 (stereo not drawn) [Example A147, N-[[5-tert-Butyl-2-(3-chlorophenyl)-2H-pyrazol-3-yl]-methyl]-2-[4-(1,2-dihydroxy-ethyl)-phenyl]-propionamide] | AG | 
24 | CC(C(=O)NCc1cc(C(F)(F)F)nn1-c1cccc(Cl)c1)c1ccc(CNS(C)(=O)=O)cc1 (stereo not drawn) [Example B5, N-[[2-(3-Chlorophenyl)-5-(trifluoromethyl)-2H-pyrazol-3-yl]-methyl]-2-[4-(methanesulfonamido-methyl)-phenyl]-propionamide] |  | 9 nM
25 | CC(C(=O)NCc1cc(C(C)(C)C)nn1-c1cccc(Cl)c1)c1ccc(CNS(C)(=O)=O)cc1 (stereo not drawn) [Example B6, N-[[5-tert-Butyl-2-(3-chlorophenyl)-2H-pyrazol-3-yl]-methyl]-2-[4-(methanesulfonamido-methyl)-phenyl]-propionamide] |  | 7 nM
26 | COc1cc(NC(=O)NCc2cc(C(C)(C)C)nn2-c2cccc(Cl)c2)ccc1CNS(C)(=O)=O [Example B11, 1-[[5-tert-Butyl-2-(3-chlorophenyl)-2H-pyrazol-3-yl]-methyl]-3-[4-(methanesulfonamido-methyl)-3-methoxy-phenyl]-urea] |  | 9 nM
27 | COc1cc(NC(=O)NCc2cc(C(F)(F)F)nn2-c2cccc(Cl)c2)ccc1CNS(C)(=O)=O [Example B12, 1-[[2-(3-Chlorophenyl)-5-(trifluoromethyl)-2H-pyrazol-3-yl]-methyl]-3-[4-(methanesulfonamido-methyl)-3-methoxy-phenyl]-urea] |  | 41 nM
28 | CC(C(=O)NCc1cc(C(C)(C)C)nn1-c1cccc(Cl)c1)c1ccc(CNS(C)(=O)=O)c(Cl)c1 (stereo not drawn) [Example B13, N-[[5-tert-Butyl-2-(3-chlorophenyl)-2H-pyrazol-3-yl]-methyl]-2-[3-chloro-4-(methanesulfonamido-methyl)-phenyl]-propionamide] |  | 1 nM
29 | CNCc1ccc(NC(=O)NCc2cc(C(F)(F)F)nn2-c2cccc(Cl)c2)cc1 [Example B14, 1-[[2-(3-Chlorophenyl)-5-(trifluoromethyl)-2H-pyrazol-3-yl]-methyl]-3-[4-(methylamino-methyl)-phenyl]-urea] |  | 64 nM
30 | CCS(=O)(=O)NCc1ccc(C(C)C(=O)NCc2cc(C(C)(C)C)nn2-c2cccc(Cl)c2)cc1F (stereo not drawn) [Example B16, N-[[5-tert-Butyl-2-(3-chlorophenyl)-2H-pyrazol-3-yl]-methyl]-2-[4-[[(ethylsulfonyl)amino]-methyl]-3-fluoro-phenyl]-propionamide] |  | 2 nM
